Data reported in ChEMBL document CHEMBL1201862, “PubChem BioAssay data set” (2004).
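Assay format: 96-well plates, 48-hour exposure. Abbreviation: GI50, concentration required for 50% inhibition of growth.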 The source made the active and inactive calls. Rule as the data show it: active = GI50 up to about 1.1 µM and inactive = higher.

Legend:
Test in all cases: NCI anticancer screen, dose series, 48 h
ACHN = test system: ACHN
CAKI-1 = test system: CAKI-1
CCRF-CEM = test system: CCRF-CEM
EKVX = test system: EKVX
HCT-15 = test system: HCT-15
HL-60 = test system: HL-60
HOP-92 = test system: HOP-92
HT-29 = test system: HT-29
Malme-3M = test system: Malme-3M
NCI-H23 = test system: NCI-H23
NCI-H460 = test system: NCI-H460
NCI/ADR-RES = test system: NCI/ADR-RES
OVCAR-3 = test system: OVCAR-3
SF-295 = test system: SF-295
SF-539 = test system: SF-539
SK-MEL-28 = test system: SK-MEL-28
SK-MEL-5 = test system: SK-MEL-5
SNB-19 = test system: SNB-19
UO-31 = test system: UO-31
SR = test system: SR

SMILES | GI50 (ACHN) | GI50 (CAKI-1) | GI50 (CCRF-CEM) | GI50 (EKVX) | GI50 (HCT-15) [µM] | GI50 (HL-60) | GI50 (HOP-92) | GI50 (HT-29) | GI50 (Malme-3M) | GI50 (NCI-H23) | GI50 (NCI-H460) | GI50 (NCI/ADR-RES) | GI50 (OVCAR-3) | GI50 (SF-295) | GI50 (SF-539) | GI50 (SK-MEL-28) | GI50 (SK-MEL-5) | GI50 (SNB-19) | GI50 (UO-31) | GI50 (SR)
c1ccc(CSCCc2ccncc2)cc1 | > 100 µM (inactive) | < 0.01 µM (active) | > 100 µM (inactive) | 67.9 µM (inactive) | > 100 | 50.8 µM (inactive) | 15.2 µM (inactive) | > 100 µM (inactive) | > 100 µM (inactive) | > 100 µM (inactive) | > 100 µM (inactive) | > 100 µM (inactive) | > 100 µM (inactive) | > 100 µM (inactive) | > 100 µM (inactive) | > 100 µM (inactive) | > 100 µM (inactive) | > 100 µM (inactive) | > 100 µM (inactive) | 
CCCCCCCCCCCCO[PH](=O)OCCCCCCCCCCCC | > 100 µM (inactive) |  | > 100 µM (inactive) | > 100 µM (inactive) | > 100 | > 100 µM (inactive) | > 100 µM (inactive) | > 100 µM (inactive) | > 100 µM (inactive) | > 100 µM (inactive) | > 100 µM (inactive) | > 100 µM (inactive) | > 100 µM (inactive) | > 100 µM (inactive) | > 100 µM (inactive) | > 100 µM (inactive) | > 100 µM (inactive) | > 100 µM (inactive) | > 100 µM (inactive) | 
CC(=O)c1ccc2c(c1)oc(=O)n2CCN(C)C | > 100 µM (inactive) | > 100 µM (inactive) | > 100 µM (inactive) | > 100 µM (inactive) | > 100 | > 100 µM (inactive) |  | 93.8 µM (inactive) | 2.02 µM (inactive) | > 100 µM (inactive) | > 100 µM (inactive) | > 100 µM (inactive) | > 100 µM (inactive) | > 100 µM (inactive) | > 100 µM (inactive) | > 100 µM (inactive) |  |  |  | > 100 µM (inactive)
N#CC(NCCc1ccccc1)c1ccc(C(C#N)NCCc2ccccc2)cc1 (stereo unspecified) | > 100 µM (inactive) | > 100 µM (inactive) | 17.9 µM (inactive) | > 100 µM (inactive) | > 100 | 14.6 µM (inactive) | > 100 µM (inactive) | 49.2 µM (inactive) | > 100 µM (inactive) | 30.7 µM (inactive) | > 100 µM (inactive) | 24.3 µM (inactive) | > 100 µM (inactive) | > 100 µM (inactive) | > 100 µM (inactive) | 48.5 µM (inactive) | 32.1 µM (inactive) | 61.2 µM (inactive) | 93.1 µM (inactive) | 
CC(OC(C)(C)C)[C@H](NC(=O)OCc1ccccc1)C(=O)NC(OCc1ccccc1)[C@H]1COC(C)(C)O1 (stereo partly specified) | > 10 µM (inactive) | > 10 µM (inactive) | > 10 µM (inactive) | > 10 µM (inactive) | > 10 | > 10 µM (inactive) | > 10 µM (inactive) | > 10 µM (inactive) | > 10 µM (inactive) | > 10 µM (inactive) | > 10 µM (inactive) | > 10 µM (inactive) | > 10 µM (inactive) | > 10 µM (inactive) | > 10 µM (inactive) | > 100 µM (inactive) | > 10 µM (inactive) | > 10 µM (inactive) | > 10 µM (inactive) | 
CSC1=C(C(=O)Nc2ccccc2)C(N)=NC1=O |  | 27.5 µM (inactive) | > 100 µM (inactive) | 77.1 µM (inactive) | > 100 | > 100 µM (inactive) |  | > 100 µM (inactive) | > 100 µM (inactive) | > 100 µM (inactive) | > 100 µM (inactive) | > 100 µM (inactive) |  |  | > 100 µM (inactive) | > 100 µM (inactive) | > 100 µM (inactive) | > 100 µM (inactive) | 17.1 µM (inactive) | 32.4 µM (inactive)
O=C(O)C(SC1=NC(=O)C2(NN1)c1ccccc1-c1ccccc12)SC1=NC(=O)C2(NN1)c1ccccc1-c1ccccc12 | > 10 µM (inactive) | > 10 µM (inactive) | > 10 µM (inactive) | 9.64 µM (inactive) | > 10 | 5.14 µM (inactive) | > 10 µM (inactive) | > 10 µM (inactive) | > 10 µM (inactive) | > 10 µM (inactive) | > 10 µM (inactive) | > 10 µM (inactive) | > 10 µM (inactive) | > 10 µM (inactive) | > 10 µM (inactive) | > 10 µM (inactive) | > 10 µM (inactive) | > 10 µM (inactive) | > 10 µM (inactive) | 
CNc1cccc2c1C(C)C[C@]1(C)C(=O)Nc3ccccc3[C@H]21 (stereo partly specified) | 23.1 µM (inactive) | 26.5 µM (inactive) | 40.7 µM (inactive) | 41.7 µM (inactive) | 39.4 | > 100 µM (inactive) |  | 28 µM (inactive) | 19.5 µM (inactive) | 60.1 µM (inactive) | 21.2 µM (inactive) | 23.1 µM (inactive) | 17.5 µM (inactive) | 17.7 µM (inactive) | 42 µM (inactive) | 30.3 µM (inactive) | 43.8 µM (inactive) | 23 µM (inactive) | 23.1 µM (inactive) | 23.8 µM (inactive)
O=C(OCc1ccccc1)c1nc2ccccc2n1S(=O)(=O)c1ccccc1 | > 100 µM (inactive) | > 100 µM (inactive) | > 100 µM (inactive) | > 100 µM (inactive) | > 100 | > 100 µM (inactive) | > 100 µM (inactive) | > 100 µM (inactive) | 88.9 µM (inactive) | > 100 µM (inactive) | > 100 µM (inactive) | > 100 µM (inactive) | > 100 µM (inactive) | > 100 µM (inactive) | > 100 µM (inactive) | > 100 µM (inactive) | 80.4 µM (inactive) | > 100 µM (inactive) | > 100 µM (inactive) | 
O=C(Nc1nnc(-c2ccccc2)o1)C(SC(=S)N1CCCCC1)c1ccccc1 (stereo unspecified) | 15.1 µM (inactive) | 18.9 µM (inactive) | 3.35 µM (inactive) | 20.9 µM (inactive) | 5.02 | 3.11 µM (inactive) |  | 20.6 µM (inactive) | 26.2 µM (inactive) | 12.4 µM (inactive) | 7.66 µM (inactive) | 3.93 µM (inactive) | 17.3 µM (inactive) | 14.1 µM (inactive) | 28.1 µM (inactive) | 24.1 µM (inactive) | 13.6 µM (inactive) | 32.1 µM (inactive) | 8.79 µM (inactive) | 4.98 µM (inactive)
CC1=NNC(=O)C1C1C(=O)NN=C(c2c[nH]c3ccccc23)C1Br (stereo unspecified) | 42.3 µM (inactive) | 62.4 µM (inactive) | 25.7 µM (inactive) | 53.5 µM (inactive) | > 100 | 37.3 µM (inactive) | > 100 µM (inactive) | 35.3 µM (inactive) | 30.3 µM (inactive) | 74.5 µM (inactive) | 38.7 µM (inactive) | 47.5 µM (inactive) | 26.3 µM (inactive) | 17.7 µM (inactive) | 50.2 µM (inactive) | 69 µM (inactive) | 37.8 µM (inactive) | 37.8 µM (inactive) | 48 µM (inactive) | 
COC(=O)/C(=N\N)C(C(=O)C(=O)Nc1cc(Cl)ccc1Cl)c1nc2ccc([N+](=O)[O-])cc2nc1O (stereo unspecified) | 50.9 µM (inactive) | > 100 µM (inactive) | > 100 µM (inactive) | 72.9 µM (inactive) | 82.6 | > 100 µM (inactive) | > 100 µM (inactive) | > 100 µM (inactive) | > 100 µM (inactive) | > 100 µM (inactive) | > 100 µM (inactive) | > 100 µM (inactive) | 74.3 µM (inactive) | > 100 µM (inactive) | > 100 µM (inactive) | > 100 µM (inactive) | > 100 µM (inactive) |  | 29.6 µM (inactive) | 
Fc1ccc(-c2sc(-c3cccs3)cc2Cc2cccs2)cc1 | > 100 µM (inactive) | > 100 µM (inactive) | 91 µM (inactive) | > 100 µM (inactive) | > 100 | > 100 µM (inactive) | > 100 µM (inactive) | 80.2 µM (inactive) | > 100 µM (inactive) | > 100 µM (inactive) | > 100 µM (inactive) | > 100 µM (inactive) | > 100 µM (inactive) | > 100 µM (inactive) | > 100 µM (inactive) | > 100 µM (inactive) | > 100 µM (inactive) | > 100 µM (inactive) | > 100 µM (inactive) | 
C=CCn1c(=O)c2ccccc2[n+]2c(C)c(C(=O)OCC)sc12 | > 100 µM (inactive) | > 100 µM (inactive) | > 100 µM (inactive) | > 100 µM (inactive) | > 100 | > 100 µM (inactive) |  | > 100 µM (inactive) |  | > 100 µM (inactive) | > 100 µM (inactive) | > 100 µM (inactive) | > 100 µM (inactive) | 42.7 µM (inactive) | > 100 µM (inactive) | > 100 µM (inactive) | > 100 µM (inactive) | > 100 µM (inactive) | > 100 µM (inactive) | > 100 µM (inactive)
O[C@H]1[C@H]2c3cc4c(cc3CN3CCC(=C[C@@H]1O)[C@H]23)OCO4 [LYCORINE] | 0.849 µM (active) | 1.24 µM (inactive) | 1.82 µM (inactive) | 2.39 µM (inactive) | 1.33 | 2.14 µM (inactive) |  | 1.46 µM (inactive) | 1.92 µM (inactive) | 2.42 µM (inactive) | 1.26 µM (inactive) | 2.31 µM (inactive) | 2.47 µM (inactive) | 2.69 µM (inactive) | 1.8 µM (inactive) | 2.7 µM (inactive) | 1.42 µM (inactive) | 2.11 µM (inactive) | 1.47 µM (inactive) | 1.47 µM (inactive)
